Assay results published in patent US11225507B2, “Conformation switchable antimicrobial peptides and methods of using the same” (priority 2017, dated 2022).

Tested on: H. pylori SS1
Test: H. pylori killing kinetics at various pHs (CFU counting, 1 h)
Format: cell-based, Helicobacter pylori
Procedure: H. pylori killing kinetics at various pHs. The killing kinetics of polypeptides were measured against H. pylori by counting the colony forming units (CFU) of alive bacteria with agar plating. The polypeptides at various concentrations were dissolved in the Tris-HC buffer at various pHs (pH 7.4, 4.0, 3.0). H. pylori were then collected and dispersed in the BB medium supplied with fresh urea (10 mM) and 10% FBS at different pHs (pH 7.4, 4.0, 3.0). The optical density at 600 nm of the bacteria were fixed at 0.1. The bacteria were then incubated with the polypeptides solution at corresponding pH in the incubator supplied with 10% CO2 at 37° C. Samples were taken for a series of ten-fold dilutions, and plated out in BB agar plates with 10% FBS and vancomycin (pH 7.4) after 1 h incubation. The plates were incubated for 72 h in the incubator and the bacteria were counted for CFU. Bacteria incubated with Tris-HCl buffer only at corresponding pH were served as 100% survival. Survival rate (%)=CFU of bacteria treated with polypeptides/CFU of bacteria treated with buffer×100%. The killing kinetics of antibiotics (OAC, omeprazole, amoxicillin, clarithromycin) against H. pylori were determined with a similar procedure. The antibiotics at various concentrations were dissolved in the Tris-HCl buffer at pH 7.4, or 3.0, and were then incubated with H. pylori in BB medium supplied with fresh urea (10 mM) and 10% FBS at corresponding pH in the incubator. After 1 h incubation, the bacteria were collected by centrifuge at 10,000 rcf for 5 min and washed with fresh BB medium. Samples were then taken for a series of ten-fold dilutions, and plated out in BB agar plates with 10% FBS and vancomycin. The plates were incubated for 72 h in the incubator and the bacteria were counted for CFU.

**Q.** For (PGA)18-r-(PHLG-MHH)20 [PL2], which “bactericidal activity against SS1” value (pH 3.0, 1 h incubation) is on record?
**A.** Its value is “higher bactericidal activity”.

**Q.** What about the “bactericidal activity against SS1” value (pH 4.0, 1 h incubation) of the same substance?
**A.** Its value is “notable bacteria killing”.

**Q.** What about the “bactericidal activity against SS1” value (pH 7.4, 1 h incubation) of the same substance?
**A.** The value was “no bactericidal activity”.
